From PubChem BioAssay AID2060600 (Molecular Pharmacology Branch, DTP, NCI, 2025)
Several values for one entry are separate records, joined by “and”; a condition that tells them apart may be missing. Identical values can stand only once.

System: 996289-038-R-J1-PDC complex spheroid viability
Test: Anticancer human tumor 996289-038-R-J1-PDC patient-derived colon adenocarcinoma cell line growth inhibition [CLK]
Settings: for viability, T/C: stronger effect = lower value; for IC50: curve of compound
Source text: A high-throughput screen of multi-cell type tumor spheroids was designed to identify active combinations of […] and targeted small molecules. Complex spheroids include a stromal component modeled by human endothelial cells (HUVEC) and fibroblasts modeled by human mesenchymal stem cells (MSCs). The concentration ranges selected for each drug and investigational agent were based upon clinically achievable concentrations if the clinical Cmax of the agent was known.
Compounds. The drugs and investigational agents: cirtuvivint (SM08502; NSC835563), CC-671 (NSC850746), vemurafenib (NSC761431), tapotoclax (NSC804041), sotorasib (NSC818433), adagrasib (NSC831453), MRTX-1133 (NSC836407), BAY2416964 (NSC825713), copanlisib (NSC816437), inavolisib (NSC800729), abemaciclib (NSC768073), osimertinib (NSC779217), entinostat (NSC756642), eltanexor (KPT-8602, NSC794443), venetoclax (NSC766270), ceralasertib (NSC777638), bortezomib (NSC756655), olaparib (NSC753686), talazoparib (NSC767125), alisertib (NSC759677), peposertib (NSC802822), gemcitabine (NSC613327), 5-fluorouracil (NSC19893), SN-38 (NSC673596), oxaliplatin (NSC266046), paclitaxel (NSC125973), and doxorubicin (NSC123127), were obtained from the National Cancer Institute (NCI) Developmental Therapeutics Program Chemical Repository. The FDA-approved anticancer drug set is available from the Developmental Therapeutics Program at https://dtp.cancer.gov/organization/dscb/obtaining/available plates.htm. […] The stock solutions were prepared in dimethyl sulfoxide (DMSO, Sigma-Aldrich, St. Louis, MO, cat. D2650), except for the platinum complexes which were prepared in saline (Quality Biological, Gaithersburg, MD, cat. 114-055-101), at 800-fold the tested concentration and stored at -70 degrees C prior to their use. All drugs and investigational agents were tested over a range starting from a high concentration at or near the clinical Cmax and decreasing in half-log increments. If the clinical Cmax for an agent had not been determined, the highest concentration tested was 10 microM.
Cell Culture. All cells were maintained in an incubator at 37 degrees C and 5% CO2 with 95% humidity. The PDC lines were cultured according to standard operating procedures established by the NCI PDMR. Briefly, all PDCs were thawed and cultured in Matrigel-coated flasks prepared with a working solution of 1X Ham's F-12 nutrient mix, without supplementation (Invitrogen, Waltham, MA, cat. 11765054), 100 U/mL penicillin-streptomycin (Invitrogen, cat. 15140122), and 2.5% Matrigel (Corning Inc., Corning, NY, cat. 354248) for the first three passages. The 947758-054-R-J2-PDC line was cultured in 6B/Colon 1A media, which includes advanced DMEM/F-12 (Thermo Fisher Scientific, cat. 12634028), 10 mM HEPES (Thermo Fisher Scientific, cat. 15630080), 1X GlutaMAX supplement (Thermo Fisher Scientific, cat. 35050061), 0.1 mg/mL primocin (InvivoGen, cat. ant-pm-2), 10% defined fetal bovine serum, heat inactivated (HyClone Laboratories Inc., cat. SH30070.03HI), 1.25 mM N-Acetyl-L-cysteine (Sigma-Aldrich, cat. A9165), 10 mM nicotinamide (Sigma-Aldrich, cat. N0636), 1X B-27 supplement (Thermo Fisher Scientific, cat. 17504044), 1X N-2 supplement (Thermo Fisher Scientific, cat. 17502048), and 10 microM Y-27632 dihydrochloride (Tocris Bioscience, cat. 1254). The 876862-298-R-J1-PDC was cultured in 6E media, which includes all 6B/Colon 1A media components plus 50% L-WRN conditioned media (ATCC, cat. CRL-3276), 50 ng/mL recombinant human EGF recombinant protein (hEGF; Thermo Fisher Scientific, cat. PHG0311), 10 ng/mL recombinant human fibroblast growth factor 10 (hGFG-10; PeproTech, cat. 100-26), 1 ng/mL recombinant human fibroblast growth factor 2 (hFGF-2; PeproTech, cat. 100-18B), and 1 µM prostaglandin E2 (PGE2; Tocris, cat. 2296). The 227483-062-R1-J1-PDC line was cultured in Panc media, containing all 6E components except hFGF-2, with the addition of 500 nM SB-431542 (Selleckchem, cat. S1067) and 10 nM gastrin (Tocris, cat. 3006). […]
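Also: spheroids exposed to the agents for 7 days before readout.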

| Compound | viability, T/C (compound 0.0316 µM) | viability, T/C (compound 0.1 µM) | viability, T/C (compound 0.316 µM) | viability, T/C (compound 1 µM) | viability, T/C (compound 3.16 µM) | viability, T/C (compound 10 µM) | IC50 | viability, T/C (compound 0.000949 µM) | viability, T/C (compound 0.003 µM) | viability, T/C (compound 0.00949 µM) | viability, T/C (compound 0.03 µM) | viability, T/C (compound 0.0949 µM) | viability, T/C (compound 0.3 µM) | viability, T/C (compound 0.00316 µM) | viability, T/C (compound 0.01 µM) |
| --- | --- | --- | --- | --- | --- | --- | --- | --- | --- | --- | --- | --- | --- | --- | --- |
| C#Cc1c(F)ccc2cc(O)cc(-c3ncc4c(N5CC6CCC(C5)N6)nc(OCC56CCCN5CC(F)C6)nc4c3F)c12 (configuration not stated) | 95.8% and 98.9% | 80.1% and 91.3% | 65.1% and 73.6% | 59.3% and 49.8% | 41.1% and 37.4% | 30.7% and 33.3% | 1.58 µM and 1 µM | – | – | – | – | – | – | – | – |
| C=C(F)C(=O)N1CCN(c2nc(OCC3CCCN3C)nc3c2CCN(c2cccc4cccc(Cl)c24)C3)CC1CC#N (configuration not stated) | 100% and 113% | 91.7% and 107% | 100% and 101% | 108% and 101% | 78.5% and 76% | 1.09% and 1.7% | 4.83 µM and 4.71 µM | – | – | – | – | – | – | – | – |
| C=CC(=O)N1CCN(c2nc(=O)n(-c3c(C)ccnc3C(C)C)c3nc(-c4c(O)cccc4F)c(F)cc23)C(C)C1 (configuration not stated) | 97.5% and 115% | 85.3% and 98% | 109% and 101% | 112% and 114% | 124% and 117% | 103% and 116% | > 10 µM | – | – | – | – | – | – | – | – |
| C=CC(=O)Nc1cc(Nc2nccc(-c3cn(C)c4ccccc34)n2)c(OC)cc1N(C)CCN(C)C | – | – | – | – | – | – | > 0.3 µM | 99.1% and 105% | 106% and 96.1% | 101% and 98.5% | 92.6% and 93.1% | 93% and 92% | 81.2% and 69.9% | – | – |
| CC(C)CC(NC(=O)C(Cc1ccccc1)NC(=O)c1cnccn1)B(O)O (configuration not stated) | – | – | – | – | – | – | 0.00484 µM and 0.0035 µM | 98.5% and 113% | 78.9% and 56.8% | 9.23% and 6.16% | 0.73% and 1.24% | 0.59% and 0.71% | 0.55% and 1.04% | – | – |
| CC(CO)NC(=O)c1cc(-c2ccc(Cl)cc2)nn(-c2cnn(C)c2)c1=O (configuration not stated) | 104% and 103% | 99.9% and 95.8% | 94.6% and 96.1% | 92.1% and 100% | 103% and 92.2% | 88.4% and 88.7% | > 10 µM | – | – | – | – | – | – | – | – |
| CC(Nc1ccc2c(c1)OCCn1cc(N3C(=O)OCC3C(F)F)nc1-2)C(N)=O (configuration not stated) | 97.5% and 100% | 78.5% and 75.5% | 72.1% and 74.9% | 63.5% and 60.5% | 54.1% and 53.5% | 46.5% and 44.3% | 6.04 µM and 4.5 µM | – | – | – | – | – | – | – | – |
| CC1(C)CCC(CN2CCN(c3ccc(C(=O)NS(=O)(=O)c4ccc(NCC5CCOCC5)c([N+](=O)[O-])c4)c(Oc4cnc5[nH]ccc5c4)c3)CC2)=C(c2ccc(Cl)cc2)C1 | 108% and 106% | 94.2% and 83.6% | 101% and 109% | 109% and 100% | 118% and 121% | 38.2% and 44.7% | 8.2 µM and 9.04 µM | – | – | – | – | – | – | – | – |
| CC1COCCN1c1cc(C2(S(C)(=N)=O)CC2)nc(-c2ccnc3[nH]ccc23)n1 (configuration not stated) | 103% and 102% | 97.6% and 89.7% | 96.9% and 106% | 97.9% and 102% | 97.8% and 101% | 84.4% and 81.6% | > 10 µM | – | – | – | – | – | – | – | – |
| CCCS(=O)(=O)Nc1ccc(F)c(C(=O)c2c[nH]c3ncc(-c4ccc(Cl)cc4)cc23)c1F | 95.8% and 104% | 87.2% and 87.3% | 94.7% and 101% | 103% and 110% | 94.8% and 101% | 77.8% and 67.8% | > 10 µM | – | – | – | – | – | – | – | – |
| CCN1CCN(Cc2ccc(Nc3ncc(F)c(-c4cc(F)c5nc(C)n(C(C)C)c5c4)n3)nc2)CC1 | 92.3% and 99.6% | 91.2% and 96.8% | 86.5% and 94.9% | 86.9% and 95% | – | – | > 1 µM | – | – | – | – | – | – | 93.4% and 99.5% | 98.7% and 84% |
